This note sets out measurements from US10618901B2 (GlaxoSmithKline Intellectual Property Development Limited, priority 2014, dated 2020).

The target of this assay is T1, LRRK2 Ser935 phosphorylation in SH-SY5Y cells over-expressing recombinant full length LRRK2 (Homo sapiens, UniProt Q5S007).
T1 construct: A BacMam virus expressing full length recombinant LRRK2 was purchased from Invitrogen; host or cells: SH-SY5Y (BacMam transduction)
Put plainly: Recombinant cellular LRRK2 AlphaScreen assay. Type of assay: cell-based. The procedure, abridged:
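SH-SY5Y cells transduced with BacMam full-length LRRK2 (MOI 50, 24 h) were treated with compound, top final 10 uM, for 60 min at 37° C. Lysates were assayed by AlphaScreen for pSer935 and total LRRK2. Dose-response fitted to a sigmoidal model.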

Setting [1] is: LRRK2 Ser935 phosphorylation, 60 minutes, read-out: recombinant cellcular LRRK2 alphaScreen assay (pIC50) (converted).
[2] abbreviates: read-out: pIC50 in the recombinant cellular LRRK2 alphaScreen assay (converted).
Where [3] appears, read: LRRK2 Ser935 phosphorylation, 60 minutes.

Like-named read-outs stand apart in the source and are kept apart here. A value given as a limit tells only on which side of the number the result lay.

T1 sequence (Q5S007 whole entry): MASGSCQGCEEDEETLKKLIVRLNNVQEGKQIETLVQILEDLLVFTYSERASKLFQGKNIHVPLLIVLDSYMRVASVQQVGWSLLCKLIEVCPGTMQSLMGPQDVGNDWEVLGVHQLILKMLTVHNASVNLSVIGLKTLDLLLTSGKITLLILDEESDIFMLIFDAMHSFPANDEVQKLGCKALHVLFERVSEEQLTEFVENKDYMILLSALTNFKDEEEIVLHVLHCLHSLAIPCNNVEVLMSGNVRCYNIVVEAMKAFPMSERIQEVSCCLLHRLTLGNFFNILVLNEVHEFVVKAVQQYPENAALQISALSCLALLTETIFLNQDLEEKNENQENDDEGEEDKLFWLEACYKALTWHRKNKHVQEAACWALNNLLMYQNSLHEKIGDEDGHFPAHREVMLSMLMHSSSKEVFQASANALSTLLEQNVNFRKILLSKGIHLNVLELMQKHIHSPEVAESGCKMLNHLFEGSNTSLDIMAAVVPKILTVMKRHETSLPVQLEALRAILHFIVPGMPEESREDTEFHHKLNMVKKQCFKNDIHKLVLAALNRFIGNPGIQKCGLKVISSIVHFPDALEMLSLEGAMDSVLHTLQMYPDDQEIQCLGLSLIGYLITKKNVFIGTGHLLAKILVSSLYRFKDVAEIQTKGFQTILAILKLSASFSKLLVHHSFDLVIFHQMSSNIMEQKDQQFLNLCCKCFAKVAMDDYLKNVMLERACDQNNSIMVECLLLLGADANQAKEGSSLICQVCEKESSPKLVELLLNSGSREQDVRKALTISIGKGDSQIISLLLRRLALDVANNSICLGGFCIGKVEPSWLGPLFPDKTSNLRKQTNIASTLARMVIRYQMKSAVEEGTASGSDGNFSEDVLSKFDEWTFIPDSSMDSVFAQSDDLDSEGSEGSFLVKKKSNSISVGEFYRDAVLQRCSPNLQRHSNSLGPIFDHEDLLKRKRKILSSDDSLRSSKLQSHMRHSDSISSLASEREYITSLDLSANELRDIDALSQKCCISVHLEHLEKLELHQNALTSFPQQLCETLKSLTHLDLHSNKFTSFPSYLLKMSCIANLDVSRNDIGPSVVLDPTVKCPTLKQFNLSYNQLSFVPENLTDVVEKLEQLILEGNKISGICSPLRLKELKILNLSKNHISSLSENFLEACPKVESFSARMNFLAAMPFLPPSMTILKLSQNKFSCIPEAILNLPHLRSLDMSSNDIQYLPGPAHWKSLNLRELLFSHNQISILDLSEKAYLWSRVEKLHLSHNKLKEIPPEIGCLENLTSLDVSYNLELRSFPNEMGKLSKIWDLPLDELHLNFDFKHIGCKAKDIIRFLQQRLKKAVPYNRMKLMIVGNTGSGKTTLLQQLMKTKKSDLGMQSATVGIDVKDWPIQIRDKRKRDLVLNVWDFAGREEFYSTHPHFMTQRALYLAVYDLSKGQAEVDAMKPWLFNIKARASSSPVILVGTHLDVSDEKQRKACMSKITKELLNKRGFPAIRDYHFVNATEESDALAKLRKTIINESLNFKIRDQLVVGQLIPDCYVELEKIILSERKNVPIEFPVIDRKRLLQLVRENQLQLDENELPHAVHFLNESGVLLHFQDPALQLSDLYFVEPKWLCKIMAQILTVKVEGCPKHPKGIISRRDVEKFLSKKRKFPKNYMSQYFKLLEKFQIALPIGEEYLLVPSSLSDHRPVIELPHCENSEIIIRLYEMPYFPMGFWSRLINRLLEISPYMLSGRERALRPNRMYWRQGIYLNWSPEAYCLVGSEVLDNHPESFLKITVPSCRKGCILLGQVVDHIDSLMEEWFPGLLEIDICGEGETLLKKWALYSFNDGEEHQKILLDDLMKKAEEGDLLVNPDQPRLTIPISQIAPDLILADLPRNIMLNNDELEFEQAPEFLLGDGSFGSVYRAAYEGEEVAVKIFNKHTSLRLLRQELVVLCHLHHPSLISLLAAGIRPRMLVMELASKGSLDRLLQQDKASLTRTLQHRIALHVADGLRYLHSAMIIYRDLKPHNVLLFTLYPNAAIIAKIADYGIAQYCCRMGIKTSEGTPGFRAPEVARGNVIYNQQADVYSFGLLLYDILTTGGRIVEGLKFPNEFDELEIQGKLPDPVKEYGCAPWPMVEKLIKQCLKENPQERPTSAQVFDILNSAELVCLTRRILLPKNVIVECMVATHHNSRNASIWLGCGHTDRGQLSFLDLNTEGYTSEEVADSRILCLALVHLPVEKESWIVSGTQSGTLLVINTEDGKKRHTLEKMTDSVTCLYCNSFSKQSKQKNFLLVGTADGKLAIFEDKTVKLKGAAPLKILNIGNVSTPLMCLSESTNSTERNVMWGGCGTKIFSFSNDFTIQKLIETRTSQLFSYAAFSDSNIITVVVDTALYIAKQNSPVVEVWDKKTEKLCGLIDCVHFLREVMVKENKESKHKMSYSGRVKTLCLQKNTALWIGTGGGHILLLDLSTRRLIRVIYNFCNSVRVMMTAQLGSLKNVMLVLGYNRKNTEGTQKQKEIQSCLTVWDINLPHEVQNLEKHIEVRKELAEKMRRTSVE

As for `CCOc1nc(Nc2cnn(C3CN(C)CCC3(F)F)c2C)nc2[nH]ccc12` (single isomer, unassigned) [Example E121, N-(1-(4,4-difluoro-1-methylpiperidin-3-yl)-5-methyl-1H-pyrazol-4-yl)-4-ethoxy-7H-pyrrolo[2,3-d]pyrimidin-2-amine], the IC50 runs as follows: under setting [1], 0.631 nM; under setting [2], not above 100 nM. The matching figures for `CCOc1nc(Nc2cnn(C3CN(C4COC4)CCO3)c2Cl)nc2[nH]ccc12` (single isomer, unassigned) [Example E141, N-(5-chloro-1-(4-(oxetan-3-yl)morpholin-2-yl)-1H-pyrazol-4-yl)-4-ethoxy-7H-pyrrolo[2,3-d]pyrimidin-2-amine]: 15.8 nM and not above 100 nM. In the case of `CCOc1nc(Nc2cnn(C3CCOCC3C)c2C)nc2[nH]ccc12` (single isomer, unassigned) [Example E113, (cis)-4-ethoxy-N-(5-methyl-1-(3-methyltetrahydro-2H-pyran-4-yl)-1H-pyrazol-4-yl)-7H-pyrrolo[2,3-d]pyrimidin-2-amine], the IC50 reads like this: under setting [1], 25.1 nM; under setting [2], not above 100 nM.

“cis-3-(4-((4-ethoxy-7H-pyrrolo[2,3-d]pyrimidin-2-yl)amino)-5-methyl-1H-pyrazol-1-yl)cyclopentanol [Example E56]”: the “recombinant cellcular LRRK2 alphaScreen assay (pIC50)” value under setting [3] was 7.8. Turning to `CCOc1nc(Nc2cnn(CCOC)c2Cl)nc2[nH]ccc12` [Example E21, N-(5-chloro-1-(2-methoxyethyl)-1H-pyrazol-4-yl)-4-ethoxy-7H-pyrrolo-[2,3-d]-pyrimidin-2-amine], the IC50 under setting [2] was not above 100 nM. For the compound `CCOc1nc(Nc2cnn([C@H]3CCN(C4COC4)C[C@@H]3F)c2Cl)nc2[nH]ccc12` (single isomer, unassigned) [Example E104], the IC50 by setting is: under setting [1], 31.6 nM; under setting [2], not above 100 nM. As for `CCOc1nc(Nc2cnn(C3CCN(C4COC4)C3)c2C)nc2[nH]ccc12` (single isomer, unassigned) [Example E67, 4-ethoxy-N-(5-methyl-1-(1-(oxetan-3-yl)-pyrrolidin-3-yl)-1H-pyrazol-4-yl)-7H-pyrrolo-[2,3-d]pyrimidin-2-amine], the IC50 under setting [2] is not above 100 nM.

On to `CCOc1nc(Nc2cnn(CCN3CCO[C@H](C(F)F)C3)c2C)nc2[nH]ccc12` [Example E100, (S)—N-(1-(2-(2-(difluoromethyl)morpholino)ethyl)-5-methyl-1H-pyrazol-4-yl)-4-ethoxy-7H-pyrrolo[2,3-d]pyrimidin-2-amine], for which the IC50 was 31.6 nM under setting [1] and not above 100 nM under setting [2]. The matching figures for `CCOc1nc(Nc2cnn(C3CCN(C)C3)c2C)nc2[nH]ccc12` (single isomer, unassigned) [Example E14, 4-ethoxy-N-(5-methyl-1-(1-methylpyrrolidin-3-yl)-1H-pyrazol-4-yl)-7H-pyrrolo-[2,3-d]-pyrimidin-2-amine]: 63.1 nM and not above 100 nM. The matching figures for `CCOc1nc(Nc2cnn(CC(C)(C)O)c2C)nc2[nH]ccc12` [Example E3, 1-(4-((4-ethoxy-7H-pyrrolo-[2,3-d]pyrimidin-2-yl)amino)-5-methyl-1H-pyrazol-1-yl)-2-methylpropan-2-ol]: 79.4 nM and not above 100 nM. In the case of “trans-2-(5-chloro-4-((4-ethoxy-7H-pyrrolo-[2,3-d]-pyrimidin-2-yl)amino)-1H-pyrazol-1-yl)cyclopentanol [Example E38]”, the “recombinant cellcular LRRK2 alphaScreen assay (pIC50)” value under setting [3] worked out at 7.6. As for `CCOc1nc(Nc2cnn(C3CN(C4COC4)CCC3(F)F)c2Cl)nc2[nH]ccc12` (single isomer, unassigned) [Example E124, N-(5-chloro-1-(4,4-difluoro-1-(oxetan-3-yl)piperidin-3-yl)-1H-pyrazol-4-yl)-4-ethoxy-7H-pyrrolo[2,3-d]pyrimidin-2-amine], under setting [1], the IC50 is 0.794 nM. As for `CCOc1nc(Nc2cnn(CCN3CCOCC3)c2C)nc2[nH]ccc12` [Example E45, 4-ethoxy-N-(5-methyl-1-(2-morpholinoethyl)-1H-pyrazol-4-yl)-7H-pyrrolo-[2,3-d]pyrimidin-2-amine], the IC50 by setting is: under setting [1], 20 nM; under setting [2], not above 100 nM.

With `CCOc1nc(Nc2cnn(C3CCOCC3)c2C2CC2)nc2[nH]ccc12` [Example E44, N-(5-cyclopropyl-1-(tetrahydro-2H-pyran-4-yl)-1H-pyrazol-4-yl)-4-ethoxy-7H-pyrrolo-[2,3-d]pyrimidin-2-amine], the IC50 under setting [1] was 63.1 nM and the IC50 under setting [2] is not above 100 nM. As for `CCOc1nc(Nc2cnn(C3CCCC3(C)O)c2C)nc2[nH]ccc12` (racemic) [Example E70, Trans-2-(4-((4-ethoxy-7H-pyrrolo-[2,3-d]pyrimidin-2-yl)amino)-5-methyl-1H-pyrazol-1-yl)-1-methylcyclopentanol], the IC50 under setting [2] is not above 100 nM. In the case of “trans-2-(4-((4-ethoxy-7H-pyrrolo-[2,3-d]pyrimidin-2-yl)amino)-5-methyl-1H-pyrazol-1-yl)-cyclopentanol [Example E40]”, under setting [3], the “recombinant cellcular LRRK2 alphaScreen assay (pIC50)” value was found to be 7.8. On to `CCOc1nc(Nc2cnn(C3CCN(C4COC4)CC3(F)F)c2Cl)nc2[nH]ccc12` (single isomer, unassigned) [Example E134, N-(5-chloro-1-(3,3-difluoro-1-(oxetan-3-yl)piperidin-4-yl)-1H-pyrazol-4-yl)-4-ethoxy-7H-pyrrolo[2,3-d]pyrimidin-2-amine], for which, under setting [1], the IC50 is 5.01 nM. On to “trans-2-(4-((4-ethoxy-7H-pyrrolo-[2,3-d]pyrimidin-2-yl)amino)-5-methyl-1H-pyrazol-1-yl)-cyclopentanol [Example E41]”, for which the “recombinant cellcular LRRK2 alphaScreen assay (pIC50)” value under setting [3] was 7.8. For the compound `CCOc1nc(Nc2cnn(C3CC(O)C3)c2C)nc2[nH]ccc12` (stereo not shown) [Example E52, 3-(4-((4-ethoxy-7H-pyrrolo-[2,3-d]-pyrimidin-2-yl)-amino)-5-methyl-1H-pyrazol-1-yl)cyclo-butanol], the IC50 under setting [1] was 12.6 nM and the IC50 under setting [2] was not above 100 nM. The matching figures for `CCOc1nc(Nc2cnn([C@@H]3CCN(C4COC4)C[C@H]3F)c2Cl)nc2[nH]ccc12` (single isomer, unassigned) [Example E105]: 25.1 nM and not above 100 nM. “trans-2-(5-chloro-4-((4-ethoxy-7H-pyrrolo-[2,3-d]-pyrimidin-2-yl)amino)-1H-pyrazol-1-yl)-cyclopentanol [Example E37]”: the “recombinant cellcular LRRK2 alphaScreen assay (pIC50)” value under setting [3] amounted to 7.6. Turning to `CCOc1nc(Nc2cnn(C3CC(N4CCOCC4)C3)c2C)nc2[nH]ccc12` (stereo not shown) [Example E86, 4-ethoxy-N-(5-methyl-1-(3-morpholinocyclobutyl)-1H-pyrazol-4-yl)-7H-pyrrolo[2,3-d] pyrimidin-2-amine], the IC50 is 39.8 nM under setting [1] and not above 100 nM under setting [2].
